Reference: PubChem BioAssay AID651963 (The Scripps Research Institute Molecular Screening Center, 2012)

Test system: C. elegans Q35::YFP muscle, polyQ foci count microscopy
Experiment: PubChem AID 651963
Settings: at 10 µM; hits give low values

`COc1ccc(/C=C/C=C2C(=O)NC(=O)NC2=O)cc1` showed a relative foci of 33.8%.
